Assay results from US11649477B2, “Assays and reagents for antimicrobial susceptibility testing” (SELUX DIAGNOSTICS, INC., priority 2018, dated 2023).
≈ marks a conversion by molar mass, not a printed value.

Legend:
E. coli = E. coli strain tested; values as generally found; cited from earlier work
K. pneumoniae = assay: Anionic ratio (growth in colistin vs MHB, Alamar Blue fluorescence); format: cell-based; details: 4 μg/ml colistin, Ex560/Em590
Method: (§1) P. mirabilis and K. pneumoniae were prepared by diluting colonies into saline to reach a McFarland value of 0.5, which was verified using a spectrophotometer, diluted, and inoculated into 96-well plates containing cation-adjusted Mueller Hinton broth and doubling dilutions of gentamycin (GEN) and ciproflaxin (CIP). Plates were incubated at 35° C., shaking at 150 rpm for 3 hours, after which 10 μl of Alamar Blue were added to each well and plates were incubated for 1 additional hour. After this incubation, Alamar Blue signal was read as the fluorescent signal Ex560/Em590. […] After the final wash, time-resolved fluorescence (TRF) for all wells was read at 330/615 nm.
(§2) The anionic ratios were calculated from the background subtracted fluorescent signal (Ex560/Em590) of bacteria grown in 4 μg/ml colistin divided by the background subtracted fluorescent signal of bacteria grown in MHB. […]

P. mirabilis = assay: as above; format: cell-based; details: 4 μg/ml colistin, Ex560/Em590
Method: as §1, §2

S. aureus = assay: Rapid AST, vancomycin dilution series read by Eu-cryptate-diamine surface binding (TRF); format: cell-based; details: Staphylococcus aureus, CTAB pretreatment, CTAB removed before probe, TRF 330/615 nm, read-out: minimum inhibitory concentration (MIC)
Method: S. aureus were prepared by diluting colonies into saline to reach a McFarland value of 0.5, which was verified using a spectrophotometer, diluted, and inoculated into 96-well plates containing cation-adjusted Mueller Hinton broth and doubling dilutions of vancomycin. Plates were incubated at 35° C., shaking at 150 rpm for 3 hours, after which 10 μl of Alamar Blue were added to each well and plates were incubated for 1 additional hour. After this incubation, 100 μl of a 0.03% Cetyltrimethylammonium bromide with 0.1M EDTA solution was added to each well. The plates were placed on a shaker at 450 RPM for 10 minutes, followed by centrifugation at 2500×g for 2.5 minutes. The wells were aspirated and 100 μL PBS with 0.05% Tween-20 (PBST) or 100 μl of a 0.03% Cetyltrimethylammonium bromide with 0.1M EDTA solution was added back into the wells. Ten microliters of Eu-cryptate-diamine (5 ng/well) was added to each well and the plates were shaken for 10 minutes. The plates were then centrifuged, the wells aspirated, and 200 μL 1×PBST were added to each well. These steps were repeated twice. After the final wash, time-resolved fluorescence (TRF) for all wells was read at 330/615 nm.

## CC[C@H]1OC(=O)[C@H](C)[C@@H](O[C@H]2C[C@@](C)(OC)[C@@H](O)[C@H](C)O2)[C@H](C)[C@@H](O[C@@H]2O[C@H](C)C[C@H](N(C)C)[C@H]2O)[C@](C)(O)C[C@@H](C)CN(C)[C@H](C)[C@@H](O)[C@]1(C)O [ATM, azithromycin]
E. coli
  MIC values: less than or equal to 0.25 μg/ml

## colistin
K. pneumoniae
  anionic ratio (background subtracted fluorescent signal in colistin divided by signal in MHB): −0.08
P. mirabilis
  anionic ratio (background subtracted fluorescent signal in colistin divided by signal in MHB): 0.96

## CN[C@H](CC(C)C)C(=O)N[C@H]1C(=O)N[C@@H](CC(N)=O)C(=O)N[C@H]2C(=O)N[C@H]3C(=O)N[C@H](C(=O)N[C@H](C(=O)O)c4cc(O)cc(O)c4-c4cc3ccc4O)[C@H](O)c3ccc(c(Cl)c3)Oc3cc2cc(c3O[C@@H]2O[C@H](CO)[C@@H](O)[C@H](O)[C@H]2O[C@H]2C[C@](C)(N)[C@H](O)[C@H](C)O2)Oc2ccc(cc2Cl)[C@H]1O [VAN, vancomycin]
S. aureus
  MIC: 2 µg/mL (≈ 1.38 µM)
